Drawing on PubChem BioAssay (NCI), this text covers TGI for eleven molecules.

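These data come from cells grown in 96-well plates and exposed to compound for 48 hours at five concentrations. TGI: total growth inhibition.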

Some test systems named below: HOP-92 NSCLC; IGROV1 ovarian; COLO 205 colon; OVCAR-5 ovarian; MALME-3M melanoma; CAKI-1 renal; RPMI-8226 leukemia; MOLT-4 leukemia; SK-MEL-5 melanoma; LOX IMVI melanoma; ACHN renal; MDA-MB-231 breast; NCI-H226 lung; U251 CNS; A498 renal; 786-0 renal; HOP-62 NSCLC.
Test in all cases: growth of human tumour cells (NCI), 48 h

As for `O=C(O)c1nc2ccc(Cl)cc2[nH]c1=O`, the TGI in the experiment with HOP-92 NSCLC, with IGROV1 ovarian, in the experiment with COLO 205 colon, in the experiment on OVCAR-5 ovarian, in the experiment on MALME-3M melanoma and in the experiment with CAKI-1 renal was greater than 100 µM in each case. For the same molecule, the TGI in the experiment with RPMI-8226 leukemia, in the experiment with MOLT-4 leukemia, with SK-MEL-5 melanoma, with LOX IMVI melanoma, in the experiment on ACHN renal and in the experiment with MDA-MB-231 breast was greater than 100 µM in each case. In addition, the TGI with NCI-H226 lung, in the experiment with U251 CNS, in the experiment on A498 renal, in the experiment on 786-0 renal and in the experiment with HOP-62 NSCLC was greater than 100 µM in each case.

With `CCOC(=O)c1nc2ccccc2nc1NCc1ccc(OC)c(OC)c1`, the TGI in the experiment on HOP-92 NSCLC, in the experiment with IGROV1 ovarian, in the experiment on COLO 205 colon, with OVCAR-5 ovarian, in the experiment on MALME-3M melanoma and in the experiment with CAKI-1 renal was greater than 100 µM each time. Moreover, the TGI in the experiment on RPMI-8226 leukemia, with MOLT-4 leukemia, in the experiment with SK-MEL-5 melanoma, with LOX IMVI melanoma, in the experiment on ACHN renal and with MDA-MB-231 breast was greater than 100 µM in each case. For the same molecule, the TGI in the experiment on NCI-H226 lung, in the experiment with U251 CNS, in the experiment with A498 renal, with 786-0 renal and with HOP-62 NSCLC was greater than 100 µM each time.

For `O=[N+]([O-])c1ccc(-n2nc3ccc4c(no[n+]4[O-])c3[n+]2[O-])c([N+](=O)[O-])c1`, the TGI in the experiment on HOP-92 NSCLC turned out to be 8.02 µM; in the experiment on IGROV1 ovarian it was 3.4 µM; in the experiment with COLO 205 colon it was 3.29 µM; in the experiment on OVCAR-5 ovarian, 17 µM; with MALME-3M melanoma, 7.45 µM; in the experiment on CAKI-1 renal it was 6.06 µM. Besides, the TGI in the experiment with RPMI-8226 leukemia came to 6.8 µM; with MOLT-4 leukemia it was 5.81 µM; in the experiment on SK-MEL-5 melanoma, 7.54 µM; in the experiment on LOX IMVI melanoma, 4.33 µM; in the experiment on ACHN renal it was 5.7 µM; with MDA-MB-231 breast, 4.64 µM. Besides, the TGI in the experiment on NCI-H226 lung amounted to 23.3 µM; in the experiment on U251 CNS, 7.6 µM; with A498 renal it was 16.3 µM; in the experiment with 786-0 renal, 7.97 µM; with HOP-62 NSCLC, 10.1 µM.

For the molecule `COC1CC(OC2CCC3(C)C(=CCC4C3C(OC(C)=O)C(OC(=O)CC(C)C)C3(C)C(C(C)=O)CCC43O)C2)OC(C)C1OC1CC(OC)C(OC2CC(OC)C(OC3OC(C)C(O)C(OC)C3O)C(C)O2)C(C)O1` (configuration not stated), the TGI with HOP-92 NSCLC was 57.6 µM; with IGROV1 ovarian, greater than 100 µM; in the experiment with COLO 205 colon it was 45 µM; in the experiment with OVCAR-5 ovarian, greater than 100 µM; in the experiment on MALME-3M melanoma it was greater than 100 µM; in the experiment on CAKI-1 renal, greater than 100 µM. Also, the TGI is 45.8 µM with RPMI-8226 leukemia; 45.6 µM with MOLT-4 leukemia; 42.7 µM with SK-MEL-5 melanoma; 43.5 µM in the experiment with LOX IMVI melanoma; greater than 100 µM in the experiment with ACHN renal; 65.6 µM in the experiment with MDA-MB-231 breast. The TGI is 89.9 µM in the experiment on NCI-H226 lung; greater than 100 µM in the experiment on U251 CNS; greater than 100 µM with A498 renal; 59.9 µM in the experiment with 786-0 renal; greater than 100 µM in the experiment with HOP-62 NSCLC.

As to `COC(=O)C1CCC(=O)N1CN(C(C)=O)c1cc(OC)ccc1OC` (configuration not stated), the TGI in the experiment with HOP-92 NSCLC, in the experiment on IGROV1 ovarian, with COLO 205 colon, in the experiment on OVCAR-5 ovarian, with MALME-3M melanoma and in the experiment with CAKI-1 renal was greater than 100 µM each time. The TGI with RPMI-8226 leukemia, in the experiment on MOLT-4 leukemia, in the experiment with SK-MEL-5 melanoma, in the experiment on LOX IMVI melanoma, in the experiment with ACHN renal and in the experiment on MDA-MB-231 breast was greater than 100 µM in each case. In addition, the TGI in the experiment on NCI-H226 lung, in the experiment with U251 CNS, in the experiment on A498 renal, in the experiment with 786-0 renal and in the experiment on HOP-62 NSCLC was greater than 100 µM each time.

In the case of `CCCN(CCC)C(=S)N/N=C(/C)c1ccccc1O`, the TGI with HOP-92 NSCLC is greater than 76.8 µM; in the experiment with IGROV1 ovarian it was 19.3 µM; with COLO 205 colon it was 21.8 µM; in the experiment on OVCAR-5 ovarian, greater than 62.9 µM; in the experiment on MALME-3M melanoma, 28.8 µM; in the experiment on CAKI-1 renal, greater than 100 µM. Besides, the TGI in the experiment with RPMI-8226 leukemia was greater than 57.7 µM; in the experiment with MOLT-4 leukemia, greater than 36.9 µM; in the experiment with SK-MEL-5 melanoma it was greater than 41.2 µM; in the experiment on LOX IMVI melanoma, greater than 100 µM; in the experiment on ACHN renal, greater than 51.9 µM; in the experiment with MDA-MB-231 breast, 52.8 µM. In addition, the TGI in the experiment with NCI-H226 lung was greater than 41 µM; in the experiment on U251 CNS, greater than 57.8 µM; in the experiment on A498 renal, 36.3 µM; in the experiment with 786-0 renal, 26.7 µM; in the experiment on HOP-62 NSCLC it was 52.8 µM.

Turning to `CNC(=O)N(CCC#N)CCN(C(=O)N(C)C)c1ccccc1`, the TGI with HOP-92 NSCLC, with IGROV1 ovarian, in the experiment on COLO 205 colon, with OVCAR-5 ovarian, in the experiment with MALME-3M melanoma and with CAKI-1 renal was greater than 100 µM throughout. Further, the TGI with RPMI-8226 leukemia, in the experiment with MOLT-4 leukemia, in the experiment with SK-MEL-5 melanoma, in the experiment on LOX IMVI melanoma, with ACHN renal and with MDA-MB-231 breast was greater than 100 µM throughout. Further, the TGI in the experiment with NCI-H226 lung, with U251 CNS, with A498 renal, in the experiment on 786-0 renal and in the experiment with HOP-62 NSCLC was greater than 100 µM throughout.

In the case of `CNCCCNC(=S)Cn1cc(C)c(=O)[nH]c1=O`, the TGI was greater than 100 µM with HOP-92 NSCLC; greater than 96.1 µM with IGROV1 ovarian; greater than 69.9 µM in the experiment on COLO 205 colon; greater than 100 µM in the experiment with OVCAR-5 ovarian; greater than 100 µM in the experiment on MALME-3M melanoma; 39.4 µM in the experiment with CAKI-1 renal. Also, the TGI in the experiment on RPMI-8226 leukemia was greater than 100 µM; with MOLT-4 leukemia it was greater than 71.7 µM; in the experiment on SK-MEL-5 melanoma it was greater than 31.4 µM; in the experiment on LOX IMVI melanoma it was greater than 100 µM; in the experiment on ACHN renal it was greater than 74.3 µM; with MDA-MB-231 breast it was greater than 100 µM. The TGI is greater than 100 µM with NCI-H226 lung; greater than 100 µM with U251 CNS; greater than 74.8 µM with A498 renal; greater than 100 µM with 786-0 renal; greater than 100 µM in the experiment with HOP-62 NSCLC.

As to `CC(C)(C)OC(=O)N1CC(CCl)c2ccc(O)cc21` (configuration not stated), the TGI with HOP-92 NSCLC was determined as 6.87 µM; with IGROV1 ovarian, 13.3 µM; with COLO 205 colon, 4.53 µM; in the experiment with OVCAR-5 ovarian it was 10.2 µM; with MALME-3M melanoma, 3.01 µM; with CAKI-1 renal, 11.6 µM. Moreover, the TGI in the experiment with RPMI-8226 leukemia was 7.96 µM; with MOLT-4 leukemia, 8.13 µM; in the experiment with SK-MEL-5 melanoma, 2.77 µM; with LOX IMVI melanoma it was 3.72 µM; with ACHN renal, 3.38 µM; in the experiment on MDA-MB-231 breast, 11.4 µM. Further, the TGI in the experiment on NCI-H226 lung was found to be 4.53 µM; with U251 CNS, 12.1 µM; in the experiment on A498 renal, 4.82 µM; in the experiment with 786-0 renal, 12.3 µM; in the experiment with HOP-62 NSCLC, 12.9 µM.

Turning to `CC(=O)c1c(SCCN2CCOCC2)n(-c2ccccc2)c(=S)n(-c2ccccc2)c1=O`, the TGI in the experiment with HOP-92 NSCLC was 30.5 µM; in the experiment with IGROV1 ovarian, 34.6 µM; with COLO 205 colon it was 41.8 µM; with OVCAR-5 ovarian it was greater than 100 µM; with MALME-3M melanoma, 58.6 µM; with CAKI-1 renal, greater than 52.3 µM. Besides, the TGI with RPMI-8226 leukemia is greater than 29.4 µM; with MOLT-4 leukemia, greater than 62.9 µM; in the experiment on SK-MEL-5 melanoma, 34.4 µM; with LOX IMVI melanoma it was 26 µM; with ACHN renal, 30.1 µM; with MDA-MB-231 breast, 37.1 µM. Moreover, the TGI in the experiment on NCI-H226 lung was greater than 73.4 µM; in the experiment on U251 CNS, greater than 57 µM; with A498 renal it was 26.1 µM; in the experiment on 786-0 renal, 26.4 µM; in the experiment with HOP-62 NSCLC, greater than 65 µM.

As for `C=C1C(=O)O[C@H]2C1C[C@@H](O)/C(C)=C/CC[C@@]1(C)O[C@H]21` (some centres not stated), the TGI is 22.9 µM in the experiment with HOP-92 NSCLC; greater than 43.8 µM in the experiment with IGROV1 ovarian; greater than 36.9 µM in the experiment on COLO 205 colon; greater than 53.8 µM in the experiment on OVCAR-5 ovarian; 16.9 µM with MALME-3M melanoma; 12.5 µM with CAKI-1 renal. Also, the TGI in the experiment on RPMI-8226 leukemia came to 25.8 µM; in the experiment with MOLT-4 leukemia it was 22.3 µM; with SK-MEL-5 melanoma, 49.1 µM; in the experiment on LOX IMVI melanoma, 26.6 µM; in the experiment with ACHN renal it was 37.7 µM; with MDA-MB-231 breast, 44.8 µM. Further, the TGI in the experiment with NCI-H226 lung was greater than 96.4 µM; in the experiment on U251 CNS, greater than 53.2 µM; in the experiment with A498 renal it was 63.1 µM; in the experiment with 786-0 renal, greater than 48.2 µM; in the experiment on HOP-62 NSCLC, greater than 95.6 µM.
